Ten compounds from paper PMC4764201, “High Throughput Screen for Escherichia coli Twin Arginine Translocation (Tat) Inhibitors” (PLoS ONE, 2016) can be followed below.

Structures are written as SMILES.

The first assay deals with Escherichia coli Tat pathway. Description: Live cell assay: total mCherry fluorescence of cells producing spTorA-mCherry-SsrA (primary HTS assay). The settings on record: Escherichia coli, read-out: IC50 (Live Cell Assay). In kind it is cell-based. The source says: Having obtained the calibration and validation data described in the previous sections, we next established the protocol for the HTS. Details are provided in the Materials and Methods section. Here, we briefly summarize the assay. A single colony of E. coli strain MC4100(DE3) containing plasmids encoding TatABC and spTorA-mCherry-SsrA was inoculated into LB and grown overnight. The next morning, cells were transferred to fresh media, the production of TatABC and spTorA-mCherry-SsrA was induced, and cultures were aliquoted onto plates with test compounds. NaSCN was included in control wells to simulate a hit. Cells were grown for 8 h, followed by incubation at 4°C overnight, and then read the next day. Setting the total cellular fluorescence obtained with spTorA-mCherry-H6 under Tat^++ conditions to 100%, spTorA-mCherry-SsrA yielded a total cellular fluorescence signal of 63±14%, consistent with SsrA-induced degradation of the mCherry protein. The total cellular fluorescence was further reduced to 36±14% in the presence of 30 mM NaSCN (simulated hit), and to 41±6% in the absence of TatABC, verifying the Δψ- and Tat-dependence of the fluorescence signal (Fig 4D).
A single colony of E. coli strain MC4100(DE3) (pTatABC-DUET1, pTorA-mCherry-SsrA) was inoculated into a 100 mL LB culture supplemented with Ap and Cm and grown at 37°C with shaking (250 rpm) overnight. Cells were harvested by centrifugation at 4,000g for 10 min at room temperature (RT), suspended in 10 mL fresh LB broth supplemented with Ap and Cm, and the optical density (A500) was determined. Simultaneously, 700 mL LB supplemented with 100 mM arabinose, 2 mM IPTG, 100 μg/mL Ap and 68 μg/mL Cm was filter-sterilized (0.22 μm), and then divided into 200 mL (A) and 500 mL (B) portions. Sterile NaSCN (30 mM final; 1.5 mL of 4 M NaSCN) was added to portion A, and an equal ratio of sterile water was added to portion B (3.75 mL). Media and cells were transferred to the HTS facility on ice.
A CyBi-Well vario pipetting workstation (CyBio, Jena, Germany) was used to dispense library compounds and cultures. Library compounds (1 μL) solubilized in DMSO were added to 384-well black, clear-bottomed plates (Greiner Bio-one, Germany) in columns 3 to 22 (320 wells/plate). For controls, DMSO (1 μL) was added to each well in columns 1, 2, […], to achieve DMSO uniformity across the plate. Both portions of LB media were inoculated with E. coli MC4100(DE3) (pTatABC-DUET1, pTorA-mCherry-SsrA) from the concentrated stock to a final A500 = 0.15. The media with 30 mM NaSCN (positive control, or simulated hit) was dispensed into each well of columns 1 and 24 (49 μL each). An equivalent volume of media without NaSCN was dispensed into each well of columns 2 to 23. Columns 2 and 23 lacked NaSCN and test compounds and served as negative controls. The first 12,800 compounds were screened at 5 μM (plates 1–40), and the remaining 38,800 compounds were screened at 20 μM (plates 41–162).
The plates containing cells and dispersed test compounds were grown with shaking (200 rpm) at 25°C for 8 h. Plates were individually mounted, not stacked, on a hollow plastic platform, allowing adequate air circulation. Following the 8 h incubation, plates were transferred to 4°C for 16 h. Each plate was covered with an empty plate to prevent condensation on the lid. […] Following the incubation, plates were read using a BMG Polarstar Omega plate reader (BMG Labtech, Ortenberg, Germany) to determine optical densities (A500) and mCherry fluorescence intensities (EX = 584 nm, EM = 620 nm).
Supplementary file pone.0149659.s003.tiff: S3 Fig IC50's for Hit Compound 181^JS. (A) The total cellular mCherry fluorescence (live cell assay; n = 1), (B) the in vitro NADH-dependent Tat transport efficiency of pre-SufI (n = 1), and (C) the maximum transmembrane electrical potential gradient (n = 1) were measured for a range of concentrations of compound 181^JS (S2E Fig). (D) SDS-PAGE gel showing in-gel fluorescence data used in (B). […]
The term IC50 denotes the point on the concentration scale where inhibition reaches its midpoint. For `N#CC(C#N)=NNc1ccccc1Br` [Compound 1, [(2-bromophenyl)hydrazono]malononitrile], the IC50 worked out at 6 µM.

In the case of `Oc1cc(Cl)ccc1Oc1ccc(Cl)cc1Cl` [Compound 18^NIH, 5-Chloro-2-(2,4-dichlorophenoxy)phenol], the IC50 is 2 µM.

Take `O=[N+]([O-])c1cc([N+](=O)[O-])c2ccccc2c1Cl` [Compound 51, 1-chloro-2,4-dinitronaphthalene]: the IC50 was determined as 20 µM.

Consider `FC(F)(F)c1cccc(-c2cccc3cnccc23)c1` [Compound 140, 5-[3-(trifluoromethyl)phenyl]isoquinoline], for which the IC50 is 14 µM.

In the case of `O=C(Nc1cccc(C(F)(F)F)c1)Nc1ncc([N+](=O)[O-])s1` [Compound 181^JS, 1-(5-nitro-1,3-thiazol-2-yl)-3-[3-(trifluoromethyl)phenyl]urea], the IC50 was 20 µM.

Consider `O=[N+]([O-])c1ccc(O)c(-c2cccs2)c1` [Compound 202, 4-nitro-2-thiophen-2-ylphenol], for which the IC50 was found to be 5 µM.

The same assay, now with this note: Tat++ conditions; appears to be a consequence of growth inhibition.
Take `Cc1ccc(S(=O)(=O)/C=C/C#N)cc1` [Bay 11–7082]: the “effect on synthesis of spTorA-mCherry-SsrA” value is reported as “inhibited synthesis”.

With `O=C1C=CC(=O)N1c1ccccc1` [N-phenylmaleimide], the “effect on synthesis of spTorA-mCherry-SsrA” value is recorded as “inhibited synthesis”.

The same assay, now with this note: mCherry fluorescence intensity during in vivo cell growth, Tat++ conditions, 384-well plate; read-out: IC50 (Live Cell Assay).
On to `N#CC1c2ccccc2-n2nncc2CN1Cc1cc(Cl)cc(Cl)c1` (stereo not shown) [21^NIH, 5-[(3,5-dichlorophenyl)methyl]-4,6-dihydrotriazolo[1,5-a][1, 4]benzodiazepine-6-carbonitrile], for which the IC50 worked out at 13 µM.

Take `Fc1nc(F)c(F)c(NNC(=S)Nc2cccc(C(F)(F)F)c2)c1F` [Compound 111, 1-[(2,3,5,6-tetrafluoropyridin-4-yl)amino]-3-[(3-trifluoromethyl)phenyl]thiourea]: the IC50 turned out to be 31 µM.
